According to patent US9388389B2, “JFH-1 based HCV cell culture systems for NS5A of genotypes 1-7” (Hvidovre Hospital, priority 2009, dated 2016):
pEC50: −log10 of the molar value. Read-outs that look alike come from different tables or passages of the source.

Key:
[1] = test system: TN(1a) NS5A recombinant; experiment: BMS-790052 treatment of infected cultures; type: cell-based; conditions: Hepatitis C virus; genotype 1a, isolate TN NS5A recombinant; read-out: NS5A inhibitor, EC50 (nM), original
Experimental: (§1) 5×10^3 naïve Huh7.5 cells were plated per well in a poly-D-lysine coated 96-well plate (Nunc, Roskilde, D K) one day before infection with different recombinant viruses. Infectious doses were chosen to aim at 400-1000 single infected cells in non-treated wells at the end of the experiment. J6/JFH1 was included with two infectious doses (high and low) to control for impact of dose variability. The infectious dose of other recombinants was in the range between. […] On day three cells were fixed and immunostained for NS3 expression as described above. In parallel, cell viability was monitored with CellTiter™ 96 AQueous One Solution Cell Proliferation Assay (Promega, Madison, Wis. USA). The number of single infected cells was determined by automated counting of individual wells as described above.
(§2) To improve HCV treatment, much attention has been drawn to development of specific small molecule HCV inhibitors, including inhibitors of NS5A. Using the NS5A genotype recombinants, we investigated sensitivity to the NS5A inhibitor most advanced in clinical trials, BMS-790052. Treatment experiments using the specific NS5A inhibitor BMS-790052 (synthesized by Acme Bioscience, Palo Alto, Calif., USA) were conducted similar to what was described for interferon-alpha.

[2] = test system: H77C(1a) NS5A recombinant; experiment: BMS-790052 treatment of infected cultures; type: cell-based; conditions: Hepatitis C virus; genotype 1a, isolate H77C NS5A recombinant; read-out: NS5A inhibitor, EC50 (nM), original
Experimental: as §1, §2

[3] = test system: HK6a(6a) NS5A recombinant; experiment: BMS-790052 treatment of infected cultures; type: cell-based; conditions: Hepatitis C virus; genotype 6a, isolate HK6a NS5A recombinant; read-out: NS5A inhibitor, EC50 (nM), original
Experimental: as §1, §2

[4] = test system: HCV-1(1a) NS5A recombinant; experiment: BMS-790052 treatment of infected cultures; type: cell-based; conditions: Hepatitis C virus; genotype 1a, isolate HCV-1 NS5A recombinant; read-out: NS5A inhibitor, EC50 (nM), original
Experimental: as §1, §2

[5] = test system: ED43(4a) NS5A recombinant; experiment: BMS-790052 treatment of infected cultures; type: cell-based; conditions: Hepatitis C virus, read-out: NS5A inhibitor, EC50 (nM), original
Experimental: as §1, §2

[6] = test system: JFH1(2a) NS5A (J6/JFH1); experiment: BMS-790052 treatment of infected cultures; type: cell-based; conditions: Hepatitis C virus; genotype 2a, isolate JFH1 NS5A (J6/JFH1); read-out: NS5A inhibitor, EC50 (nM), original
Experimental: as §1, §2

[7] = test system: QC69(7a) NS5A recombinant; experiment: BMS-790052 treatment of infected cultures; type: cell-based; conditions: Hepatitis C virus; genotype 7a, isolate QC69 NS5A recombinant; read-out: NS5A inhibitor, EC50 (nM), original
Experimental: as §1, §2

[8] = test system: J4(1b) NS5A recombinant; experiment: BMS-790052 treatment of infected cultures; type: cell-based; conditions: Hepatitis C virus
Experimental: as §1, §2

[9] = test system: S52(3a) NS5A recombinant; experiment: BMS-790052 treatment of infected cultures; type: cell-based; conditions: Hepatitis C virus
Experimental: as §1, §2

[10] = test system: J1(1a) NS5A recombinant; experiment: BMS-790052 treatment of infected cultures; type: cell-based; conditions: Hepatitis C virus
Experimental: as §1, §2

[11] = test system: J6/JFH1 with NS5A mutation I37V; experiment: BMS-790052 treatment of infected cultures; type: cell-based, hepatitis C virus
[12] = test system: J6/JFH1 with NS5A mutation L27I; experiment: BMS-790052 treatment of infected cultures; type: cell-based, hepatitis C virus
[13] = test system: HCV NS5A genotype 1-7 recombinants; experiment: BMS-790052 treatment of infected cultures, high-throughput assay; type: cell-based; conditions: Hepatitis C virus, most isolates
Experimental: as §1, §2

Work on `COC(=O)N[C@H](C(=O)N1CCC[C@H]1c1nc(-c2ccc(-c3ccc(-c4c[nH]c([C@@H]5CCCN5C(=O)[C@@H](NC(=O)OC)C(C)C)n4)cc3)cc2)c[nH]1)C(C)C` [BMS-790052] yielded an EC50 [1] of 0.038 nM, an EC50 [2] of 0.026 nM and an EC50 [3] of 0.031 nM. The EC50 [4] was 0.12 nM, the EC50 [5] was 0.017 nM and the EC50 [6] was 0.097 nM. The EC50 [7] was 0.05 nM, the pEC50 ([8]; J4(1b), most sensitive, read-out: EC50) was 11.05 and the EC50 ([8]; genotype 1b, isolate J4 NS5A recombinant, read-out: NS5A inhibitor, EC50 (nM), original) was 0.009 nM. The pEC50 ([9]; S52(3a), read-out: EC50) was 9.05, the EC50 ([9]; genotype 3a, isolate S52 NS5A recombinant, read-out: NS5A inhibitor, EC50 (nM), original) was 0.9 nM and the pEC50 ([10]; J1(1a), read-out: EC50) was 8.96. The EC50 ([10]; genotype 1a, isolate J1 NS5A recombinant, read-out: NS5A inhibitor, EC50 (nM), original) was 1.1 nM, the EC50 ([11]; Hepatitis C virus, JFH1(2a), NS5A mutation I37V, single experiment of three replicates, read-out: NS5A inhibitor, EC50 (nM), putative resistance mutant) was 0.17 nM and the “Fold resistance compared to original” value ([11]; JFH1(2a) I37V vs original JFH1(2a)) was 2.0 fold. For the same molecule, the EC50 ([12]; Hepatitis C virus, JFH1(2a), NS5A mutation L27I, single experiment of three replicates, read-out: NS5A inhibitor, EC50 (nM), putative resistance mutant) was 0.14 nM, the “Fold resistance compared to original” value ([12]; JFH1(2a) L27I vs original JFH1(2a)) was 1.6 fold and the pEC50 [13] was greater than 10.00.
